Article PMC5606850, “Acidic C-terminal domains autoregulate the RNA chaperone Hfq” (eLife, 2017)

Experiments:
[1] = tested on: Target-A18; assay: RNA annealing kinetics (molecular beacon with Target-A18), stopped-flow fluorescence; type: biochemical; conditions: 50 nM molecular beacon, 100 nM Target-A18, 0–200 nM Hfq hexamer, 30 °C
Description: (§1) Figure 4. Shortening the CTD increases auto-inhibition by acidic residues. (A) Observed annealing rate constants for 100 nM target RNA and 50 nM molecular beacon with 0–200 nM Hfq hexamer at 30°C, measured by stopped-flow fluorescence. Black, Hfq102; red, Hfq-sCTD; cyan, Hfq65. (B) Fluorescence anisotropy assay for RNA binding and release. In stopped-flow FRET experiments, the dsRNA is released after pairing with its complementary strand ([Panja et al., 2013]; [Santiago-Frangos et al., 2016]). […] Remaining RNA was displaced from Hfq by excess ssDNA (400 nM DNA2). The averages and standard deviations for three trials are plotted for each Hfq variant. […] (D) Annealing of 5 nM ^32P-ChiX sRNA with 30 nM chiP mRNA without Hfq, or with Hfq65, Hfq102 or Hfq-sCTD, as indicated above each lane. Samples were loaded on a native polyacrylamide gel 60 min or 20 s after the components were mixed. […] (E) Fractions of free ChiX (black), ChiX·chiP dsRNA (light grey), ChiX·Hfq·chiP ternary complex (hatched) and ChiX·Hfq binary complex (dark grey) after 4 min of annealing, as analyzed by EMSA (Figure 4—figure supplement 2). […] Annealing of 100 nM Target RNA to 50 nM beacon RNA by Hfq variants was measured by stopped flow fluorescence at 30°C in 1 × TNK buffer. […] The change in fluorescence emission intensity was normalized to the maximum fluorescence within an experiment. […]

[2] = tested on: ChiX sRNA and chiP mRNA; assay: ChiX sRNA-chiP mRNA annealing, EMSA; type: biochemical, E. coli; conditions: 10 °C; for time to form ternary complex with ChiX and chiP: 5 nM ChiX, 30 nM chiP; for stability of ChiX·Hfq·chiP ternary complex: 33.3 nM Hfq hexamer, TNK buffer
Description: Figure 4. Shortening the CTD increases auto-inhibition by acidic residues. (A) Observed annealing rate constants for 100 nM target RNA and 50 nM molecular beacon with 0–200 nM Hfq hexamer at 30°C, measured by stopped-flow fluorescence. Black, Hfq102; red, Hfq-sCTD; cyan, Hfq65. (B) Fluorescence anisotropy assay for RNA binding and release. In stopped-flow FRET experiments, the dsRNA is released after pairing with its complementary strand ([Panja et al., 2013]; [Santiago-Frangos et al., 2016]). […] Remaining RNA was displaced from Hfq by excess ssDNA (400 nM DNA2). The averages and standard deviations for three trials are plotted for each Hfq variant. […] (D) Annealing of 5 nM ^32P-ChiX sRNA with 30 nM chiP mRNA without Hfq, or with Hfq65, Hfq102 or Hfq-sCTD, as indicated above each lane. Samples were loaded on a native polyacrylamide gel 60 min or 20 s after the components were mixed. Full gel images are in Figure 4—figure supplement 2. (E) Fractions of free ChiX (black), ChiX·chiP dsRNA (light grey), ChiX·Hfq·chiP ternary complex (hatched) and ChiX·Hfq binary complex (dark grey) after 4 min of annealing, as analyzed by EMSA (Figure 4—figure supplement 2). Figure 4—figure supplement 1. Effect of CTD length on RNA oligomer annealing kinetics. Annealing of 100 nM Target RNA to 50 nM beacon RNA by Hfq variants was measured by stopped flow fluorescence at 30°C in 1 × TNK buffer. (A) Target RNA annealed by Hfq65 (no CTD), Hfq102 (complete CTD) or Hfq-sCTD (shortened linker CTD). (B) Target-U6 (proximal) annealed by Hfq65, Hfq102 or Hfq-sCTD. (C) Target-A18 annealed Hfq65, Hfq102 or Hfq-sCTD. The change in fluorescence emission intensity was normalized to the maximum fluorescence within an experiment. The average of five measurements is shown per progress curve. Annealing data were also collected for 0–200 nM Hfq hexamer. All progress curves were fitted to single- or double-exponential rate equations to obtain kobs, as previously described ([Santiago-Frangos et al., 2016]). [drawing 7] Figure 4—figure supplement 2. Effect of CTD length on sRNA·mRNA annealing. EMSAs of the annealing of 5 nM ^32P-ChiX to 30 nM chiP ([Rasmussen et al., 2009]) at 10°C in 1 × TNK buffer. Reactions were done (A) without Hfq, or with 33.3 nM hexamer (B) Hfq102, (C) Hfq65 or (D) Hfq-sCTD, Control reactions with ChiX only, ChiX and chiP mRNA, ChiX and Hfq or three components were loaded at the beginning (left) and end (right) of each time course, as indicated above the lanes. In the absence of Hfq, only 20% of ChiX·chiP annealed after 30 min. In the presence of all Hfq variants, at least 50% ChiX was in a ternary complex containing ChiX·Hfq·chiP within 1 min, and annealing reached a plateau within 2 min.
To determine whether the above results on RNA oligomers apply to natural RNA substrates for Hfq, we examined the annealing of the Class II sRNA ChiX to the mRNA chiP via electrophoretic mobility shift assays (EMSAs). Because the mRNA targets of class II sRNAs interact with the rim of Hfq ([Schu et al., 2015]; [Małecka et al., 2015]), we reasoned that this sRNA-mRNA pair would be sensitive to displacement by the CTD. Low nanomolar amounts of ChiX and chiP anneal very slowly at 10°C, in the absence of Hfq (Figure 4—figure supplement 2). Whereas, Hfq102, Hfq65 and Hfq-sCTD all form a ternary complex with ChiX and chiP within 20 s (Figure 4D), reaching equilibrium in a few minutes (Figure 4—figure supplement 2). […] Less ternary complex was formed by Hfq102, and the least by Hfq-sCTD.

[3] = tested on: D16-FAM·R16; assay: anisotropy time-course of D16-FAM·R16 binding, annealing and release; type: biochemical; conditions: 50 nM D16-FAM, 50 nM Hfq hexamer, then 50 nM R16, TNK buffer, 30 °C, three trials
Description: as §1

| Substance | annealing acceleration for Target-A18 compared to no Hfq [1] | time to form ternary complex with ChiX and chiP [2] [s] | stability of ChiX·Hfq·chiP ternary complex [2] | ChiX-Hfq binary complex remaining ([2]; after 20 s) | release of annealed dsRNA (D16-FAM·R16) from Hfq [3] |
| --- | --- | --- | --- | --- | --- |
| Hfq65: truncated E. coli Hfq variant lacking the CTD | roughly 100 fold | ≤ 20 | most stable | almost no ChiX-Hfq65 binary complex remaining after 20 s | a large proportion of the dsRNA remained bound to Hfq65 |
| Hfq102: full-length E. coli Hfq | roughly 100 fold | ≤ 20 | medium | – | most of the annealed dsRNA dissociated from Hfq102 |
